Measurements as given in the NIST ThermoML archive (doi:10.1021/acs.jced.5b00776).

Conditions: Wilhelmi plate

O [water]
Conditions | surface tension liquid-gas [mN/m]
272.64 K, Metastable liquid | 75.78
273.04 K, Metastable liquid | 75.71
275.06 K, Liquid | 75.41
276.72 K, Liquid | 75.17
280.09 K, Liquid | 74.69
280.34 K, Liquid | 74.65
283.27 K, Liquid | 74.23
286.54 K, Liquid | 73.74
288.33 K, Liquid | 73.46
290.57 K, Liquid | 73.12
293.04 K, Liquid | 72.74
294.13 K, Liquid | 72.58
295.71 K, Liquid | 72.33
297.4 K, Liquid | 72.07
298.42 K, Liquid | 71.91
299.35 K, Liquid | 71.77
300.3 K, Liquid | 71.62
301.78 K, Liquid | 71.39
302.43 K, Liquid | 71.28
303.41 K, Liquid | 71.13
304.45 K, Liquid | 70.96
305.69 K, Liquid | 70.76
306.63 K, Liquid | 70.61
307.99 K, Liquid | 70.39
310.6 K, Liquid | 69.97
313.69 K, Liquid | 69.47
316.02 K, Liquid | 69.07
318.49 K, Liquid | 68.66
323.62 K, Liquid | 67.79
328.1 K, Liquid | 67.03
333.49 K, Liquid | 66.1
337.83 K, Liquid | 65.34
343.49 K, Liquid | 64.33
